Measured values as given in ChEMBL document CHEMBL4007434, “Indazole-Based Covalent Inhibitors To Target Drug-Resistant Epidermal Growth Factor Receptor” (J Med Chem, 2017).
Activity calls are given as the source filed them. No cut-off for these calls is given here.

Key:
[1] = molecular target: T1, Epidermal growth factor receptor (Homo sapiens, UniProt P00533); type: ADME
[2] = molecular target: T2, Epidermal growth factor receptor (Homo sapiens, UniProt P00533, L858R)
[3] = molecular target: T3, Epidermal growth factor receptor (Homo sapiens, UniProt P00533, L858R/T790M)
[4] = molecular target: T1, Epidermal growth factor receptor; test: Inhibition of wild-type EGFR in human A431 cells assessed as reduction in cell viability after 96 hrs by CellTiterGlo assay; type: ADME, cell-based
[5] = Inhibition of KRAS mutant in human A431 cells assessed as reduction in cell viability after 96 hrs by CellTiterGlo assay; type: cell-based; settings: A-431, 96 h
[6] = Ratio of EC50 for wild-type EGFR in human A431 cells to EC50 for EGFR delE746_A750 mutant in human HCC827 cells
[7] = test system: Epidermal growth factor receptor (Homo sapiens), P00533 [T790M]; test: Binding affinity to EGFR T790M mutant (unknown origin) assessed as covalent adduct formation at 100 uM after 1 hr by ESI-MS analysis
[8] = test system: Epidermal growth factor receptor (Homo sapiens), P00533 [L858R,T790M,C797S]; test: Inhibition of EGFR L858R/T790M/C797S triple mutant (unknown origin) by HTRF assay
Liver [9] = test: Stability in human liver microsomes at 3 uM up to 50 mins by LCMS analysis; type: ADME, microsome
Liver [10] = test: Stability in mouse liver microsomes at 3 uM up to 50 mins by LCMS analysis; type: ADME, microsome
[11] = Stability in human plasma assessed as compound remaining at 5 uM after 1 hr by LCMS analysis; type: ADME, cell-free; settings: read-out: Stability
[12] = Stability in mouse plasma assessed as compound remaining at 5 uM after 1 hr by LCMS analysis; type: ADME, cell-free; settings: read-out: Stability
[13] = test system: Epidermal growth factor receptor (Homo sapiens), P00533 [L858R]; test: (§1) Reversible inhibition of human N-terminal GST-tagged EGFR L858R mutant cytoplasmic domain (669 to 1210 end amino acid residues) expressed in baculovirus expression system using TK peptide substrate preincubated for 2 to 90 mins followed by 6-fold dilution
[14] = Ratio of EC50 for wild-type EGFR in human A431 cells to EC50 for EGFR L858R/T790M double mutant in human NCI-H1975 cells
[15] = test system: Epidermal growth factor receptor (Homo sapiens), P00533 [L858R,T790M]; test: (§2) Inhibition of EGF-induced EGFR L858R/T790M double mutant phosphorylation in human NCI-H1975 cells pre-incubated for 1 hr followed by EGF stimulation for 30 mins by Western blot analysis; type: cell-based
[16] = molecular target: T3, Epidermal growth factor receptor; test: as §2; type: cell-based
[17] = test system: Epidermal growth factor receptor (Homo sapiens), P00533 [L858R,T790M]; test: Inhibition of EGFR L858R/T790M double mutant in human NCI-H1975 cells assessed as reduction in EGF-induced Akt phosphorylation at S473 at 0.1 to 10 uM pre-incubated for 1 hr followed by EGF stimulation for 30 mins by Western blot analysis; type: cell-based
[18] = molecular target: T1, Epidermal growth factor receptor; test: Inhibition of EGF-induced wild-type EGFR phosphorylation in human A431 cells at 10 uM pre-incubated for 1 hr followed by EGF stimulation for 30 mins by Western blot analysis; type: cell-based; settings: 0.5 h
[19] = Ratio of IC50 for wild-type human N-terminal GST-tagged EGFR cytoplasmic domain (669 to 1210 end amino acid residues) expressed in baculovirus expression system to IC50 for human N-terminal GST-tagged EGFR L858R/T790M double mutant cytoplasmic domain (669 to 1210 end amino acid residues) expressed in baculovirus expression system
[20] = molecular target: T1, Epidermal growth factor receptor; test: Ratio of Kinact to Ki for reversible inhibition of wild-type human N-terminal GST-tagged EGFR cytoplasmic domain (669 to 1210 end amino acid residues) expressed in baculovirus expression system
[21] = molecular target: T1, Epidermal growth factor receptor; test: Reversible inhibition of wild-type human N-terminal GST-tagged EGFR cytoplasmic domain (669 to 1210 end amino acid residues) expressed in baculovirus expression system using TK peptide substrate preincubated for 2 to 90 mins followed by 6-fold dilution
[22] = molecular target: T2, Epidermal growth factor receptor; test: as §1
[23] = molecular target: T3, Epidermal growth factor receptor; test: Reversible inhibition of human N-terminal GST-tagged EGFR L858R/T790M double mutant cytoplasmic domain (669 to 1210 end amino acid residues) expressed in baculovirus expression system using TK peptide substrate preincubated for 2 to 90 mins followed by 6-fold dilution
[24] = molecular target: T1, Epidermal growth factor receptor; test: Reversible inhibition of wild-type human N-terminal GST-tagged EGFR cytoplasmic domain (669 to 1210 end amino acid residues) expressed in baculovirus expression system using TK peptide substrate assessed as inactivation constant preincubated for 2 to 90 mins followed by 6-fold dilution
[25] = molecular target: T3, Epidermal growth factor receptor; test: Inhibition of EGFR L858R/T790M double mutant in human NCI-H1975 cells assessed as reduction in EGF-induced Akt phosphorylation at S473 pre-incubated for 1 hr followed by EGF stimulation for 30 mins by Western blot analysis; type: cell-based
[26] = molecular target: T1, Epidermal growth factor receptor; test: Inhibition of EGF-induced wild-type EGFR phosphorylation in human A431 cells pre-incubated for 1 hr followed by EGF stimulation for 30 mins by Western blot analysis; type: cell-based
[27] = molecular target: T1, Epidermal growth factor receptor; test: Inhibition of wild-type EGFR in human A431 cells assessed as reduction in EGF-induced Akt phosphorylation at S473 pre-incubated for 1 hr followed by EGF stimulation for 30 mins by Western blot analysis; type: cell-based
[28] = test system: Epidermal growth factor receptor (Homo sapiens), P00533 [L858R]
[29] = test system: Epidermal growth factor receptor (Homo sapiens), P00533 [L858R,T790M]
[30] = Inhibition of KRAS mutant in human H358 cells assessed as reduction in cell viability after 96 hrs by CellTiterGlo assay; type: cell-based; settings: NCI-H358, 96 h

SMILES	IC50 [1] [nM]	IC50 [2] [nM]	IC50 [3] [nM]	EC50 [4] [nM]	other results
C=CC(=O)Nc1cc(Nc2n[nH]c3cc(-c4cncc5ccccc45)ccc23)c(OC)cc1N(C)CCN(C)C	2.8	1.1	6	2820	EC50 [5]: 659 nM
C=CC(=O)Nc1cc(Nc2n[nH]c3ccc(-c4cccc5ccccc45)cc23)c(OC)cc1N(C)CCN(C)C	33	12	2.7	2780	
CCC(=O)Nc1cc(Nc2n[nH]c3ccccc23)c(OC)cc1N(C)CCN(C)C	> 10000	> 10000	> 10000	> 30000	
C=CC(=O)Nc1cc(Nc2n[nH]c3cc(-c4cccc(F)c4)ccc23)c(OC)cc1N(C)CCN(C)C	5	1.6	5	2280	
C=CC(=O)Nc1cc(Nc2n[nH]c3ccc(-c4ccc(F)cc4)cc23)c(OC)cc1N(C)CCN(C)C	6.8	2	< 1	2070	Ratio EC50 [6]: 3 - 4; Activity [7]: Active; inhibition [8]: inactive; Stability (Liver [9]): Stable; Stability (Liver [10]): Stable; remaining at 1 h, 5 µM [11]: > 75%; remaining at 1 h, 5 µM [12]: > 90%; inhibition [13]: Active; Ratio EC50 [14]: 3 - 4; inhibition [15]: Dose-dependent effect; EC50 [16]: 100 to 1000 nM; inhibition [17]: Active; inhibition (INH) [18]: Active
C=CC(=O)Nc1cc(Nc2n[nH]c3ccc(-c4ccc5ccccc5c4)cc23)c(OC)cc1N(C)CCN(C)C	8.1	2.2	1.1	1770	Ratio IC50 [19]: 8; Activity [7]: Active; kinact/KI [20]: 20000 M⁻¹ s⁻¹; inhibition [8]: inactive; Stability (Liver [9]): Stable; Stability (Liver [10]): Stable; remaining at 1 h, 5 µM [11]: > 75%; remaining at 1 h, 5 µM [12]: > 90%; Ki [21]: 147 nM; Ki [22]: 105 nM; Ki [23]: 28 nM; kinact [24]: 0.003 s⁻¹; EC50 [16]: 1000 to 10000 nM; EC50 [25]: 1000 to 10000 nM; EC50 [26]: 1000 to 10000 nM; EC50 [27]: 1000 to 10000 nM; Kinact [28]: 0.14 min⁻¹; Kinact [29]: 0.5 min⁻¹
C=CC(=O)Nc1cc(Nc2n[nH]c3cc(-c4ccc5ccccc5c4)ccc23)c(OC)cc1N(C)CCN(C)C	312	25	85	1650	
CCC(=O)Nc1cc(Nc2n[nH]c3ccccc23)ccc1N(C)CCN(C)C	> 10000	8470	9730	> 30000	
C=CC(=O)Nc1cc(Nc2n[nH]c3cc(-c4ccncc4)ccc23)c(OC)cc1N(C)CCN(C)C	30	14	5	3940	Activity [7]: Active; inhibition [8]: inactive; Stability (Liver [9]): Stable; Stability (Liver [10]): Stable; remaining at 1 h, 5 µM [11]: > 75%; remaining at 1 h, 5 µM [12]: > 90%; inhibition [13]: Active
C=CC(=O)Nc1cc(Nc2n[nH]c3ccccc23)ccc1N(C)CCN(C)C	> 10000	> 10000	2630	5970	
C=CC(=O)Nc1cc(Nc2n[nH]c3cc(-c4ccc(F)cc4)ccc23)c(OC)cc1N(C)CCN(C)C	26	8.5	10	2170	
C=CC(=O)Nc1cc(Nc2n[nH]c3cc(-c4ccc(N(C)C)cc4)ccc23)c(OC)cc1N(C)CCN(C)C	387	80	72	1410	
C=CC(=O)Nc1cc(Nc2n[nH]c3cc(-c4cccnc4)ccc23)c(OC)cc1N(C)CCN(C)C	97	29	15	5670	
C=CC(=O)Nc1cc(Nc2n[nH]c3cc(-c4cccc(N(C)C)c4)ccc23)c(OC)cc1N(C)CCN(C)C	48	10	22	3470	
C=CC(=O)Nc1cc(Nc2n[nH]c3ccccc23)c(OC)cc1N(C)CCN(C)C	9270	3350	462	10400	
C=CC(=O)Nc1cc(Nc2n[nH]c3cc(-c4cccc(C(F)(F)F)c4)ccc23)c(OC)cc1N(C)CCN(C)C	16	4.5	38	3540	
C=CC(=O)Nc1cc(Nc2n[nH]c3cc(-c4cn(C)c5ccccc45)ccc23)c(OC)cc1N(C)CCN(C)C	9.3	1.5	4.8	2210	EC50 [5]: 2100 nM; EC50 [30]: 2600 nM; Activity [7]: Active; kinact/KI [20]: 20000 M⁻¹ s⁻¹; inhibition [8]: inactive; Stability (Liver [9]): Stable; Stability (Liver [10]): Stable; remaining at 1 h, 5 µM [11]: > 75%; remaining at 1 h, 5 µM [12]: > 90%; Ki [21]: 236 nM; Ki [22]: 57 nM; Ki [23]: 149 nM; kinact [24]: 0.00467 s⁻¹; inhibition [15]: Dose-dependent effect; EC50 [16]: 100 to 1000 nM; inhibition [17]: Active; inhibition (INH) [18]: Active; Kinact [28]: 0.14 min⁻¹; Kinact [29]: 0.37 min⁻¹
